# Measured values taken from article PMC5011342, “A high throughput drug screening assay to identify compounds that promote oligodendrocyte differentiation using acutely dissociated and purified oligodendrocyte precursor cells” (BMC Research Notes, 2016).
# Where “and” joins values, the source holds several entries; their conditions need not be identical. Equal entries are not always repeated. Structures can show the parent of a compound that is named as a salt. Where two headings read alike, the source gives them in different places. Starred links: 1 amine or outer side, 2 acyl side, 3 side chain; linkers in the order of their positions; H or OH if unused. Positions of bridges follow the written chain, without caps; N, C: chain ends. Non-standard residues stand in square brackets, D forms with d. Residues, ends and D or L forms follow the SMILES beside them. Chains are numbered I, II in the order given. Actinocin(9to1) = Cc1c2oc3c(C)ccc(C(=O)[*:1])c3nc-2c(C(=O)[*:2])c(N)c1=O; NMeV = CN[C@H](C(=O)O)C(C)C; Sar = CNCC(=O)O
# Experiments:
# [1] = tested on: acutely dissociated and purified rat OPCs; experiment: Acute OL differentiation assay (MBP expression/cell, immunofluorescent image quantification); type: cell-based
# Description: In order to identify compounds with the potential to promote OL differentiation in vivo and thereby enhance remyelination, we first wanted to establish an in vitro assay system that would closely mimic conditions in vivo. To do this, we started by using OPCs acutely isolated from postnatal day 6–7 (P6–7) rat brains by O4 immunopanning. […] OPCs were plated directly onto a biological substrate (PDL/laminin) in 96-well view plates at moderate density to allow for sufficient room to expand processes during differentiation. We plated cells in serum-free medium lacking OPC mitogens (no PDGF or FGF) to allow a basal level of OL differentiation to commence, and as a positive control added thyroid hormone (T3, 40 ng/ml) to accelerate differentiation (Fig. 1, flow scheme).
# Fig. 1 Flow scheme of the acute OL differentiation assay. a Purified oligodendrocyte precursor cells (OPCs) were cultured from P7 rat cortex and plated into PDL/laminin pre-coated 96-well plates. b One hour later test compounds were added. c OPC cultures with compound were maintained in culture for an additional 4 days. d On the 5th day with compound, cells were fixed and immunostained with anti-MBP antibodies and DAPI. e Images were acquired with automated fluorescence microscopy and scored phenotypically for OL differentiation (see “Methods” section)
# To quantify the extent of OL differentiation occurring in treatment conditions, we measured the overall amount of MBP expression/cell (see “Methods” section). Figure 2a depicts the mask created over MBP staining under which the MBP expression was quantified. […]
# All animal work was carried out in strict accordance with the recommendations in the Guide for the Care and Use of Laboratory Animals of the National Institutes of Health. The protocol was approved by the Institutional Use and Care and Use Committee at the Molecular Medicine Research Institute (Sunnyvale, CA). Animals used for OPC isolation in these studies were euthanized by decapitation. OPCs from brains of P6-P7 Sprague–Dawley rat pups (Charles River, Wilmington, MA, USA) were enriched by immunopanning as previously described (Dugas et al. 2006). Briefly, single cell suspensions were obtained from papain-digested neonatal brains and depleted of mature glial cells by successive panning with RAN-2- and GalC-coated plates, followed by enrichment for OPCs using O4-coated plates. OPCs were plated in differentiation media (DMEM, 100 U/ml Penicillin/100 µg/ml streptomycin, 2 mM L-glutamine, 1 mM Na pyruvate, 5 µg/ml insulin, 5 µg/ml N-acetyl-L-cysteine, 1× trace elements B,10 ng/ml d-Biotin, 100 µg/ml BSA, 100 µg/ml apo-transferrin, 16 µg/ml putrescine, 60 ng/ml progesterone, 40 ng/ml sodium selenite 5 ng/ml forskolin, 10 ng/ml CNTF, 1 ng/ml NT-3).
# Acutely enriched OPCs were plated in differentiation media at 5000 cells/well into PDL/laminin coated 96-well view plates and centrifuged at 200×g to facilitate cell attachment, survival, and even distribution of OPCs. OPCs were pre-incubated for 1–2 h at 37 °C in 10 % CO2, followed by the addition of test compounds in quadruplicate. Controls were added in eight replicate wells, negative control = 0.1 % DMSO; positive control = 40 ng/ml T3. The day of OPC plating was considered DIV0. On DIV4, cells were fixed, immunostained for myelin basic protein (MBP) expression, imaged and quantified as described below.
# expanded OPCs = experiment: cells; settings: for viability at 0.1 µM / viability at 1 µM / viability at 10 µM: Rattus norvegicus, 72 h
# Description: Having established a consistent assay for measuring OL differentiation in vitro, the next step was to utilize this assay to assess the ability of a wide array of compounds to promote OL differentiation. Prior to library screening, we first established the maximum non-toxic dose of each compound in the library. […] Therefore, we added each compound in the NIH clinical collection (NCC) library to OPCs at 10, 1, and 0.1 µM concentrations. Three days later, we assessed viability of the treated cells by measuring AlamarBlue fluorescence, a measure of cell viability (see “Methods” section). […] Appropriately, we established three sets of screening concentrations for library compounds: non-toxic compounds were tested at 10 and 2 µM, slightly toxic compounds (only toxic at 10 µM) were tested at 2 and 0.4 µM, and very toxic compounds were tested at 0.4 and 0.08 µM.
# OPCs were expanded in vitro by seeding into PDL-coated tissue culture flasks at 1000–2000 cells/cm^2 in differentiation media supplemented with 10 ng/ml PDGF-AA. Proliferating OPCs were fed every 2–3 days and supplemented with 2–3× concentration of PDGF as needed to prevent OPC differentiation. After 6–7 days of proliferation, OPCs were harvested by trypsinization, plated into PDL-coated 96-well Falcon plates and centrifuged at 200×g to facilitate cell attachment, survival, and even distribution of cells. Expanded OPCs were seeded in differentiation media at 10,000 cells/well and incubated for 2 h at 37 °C, 10 % CO2 prior to addition of compounds. The NCC library was diluted and added to cells at 10, 1, and 0.1 µM; each concentration was tested in quadruplicate. As a positive control for the induction of toxicity, 5 ng/ml tunicamycin was added to 8 wells in each plate. Three days later, a 1:10 dilution of alamarBlue® (AB) was added to each well and cells were incubated 4 h at 37 °C, 10 % CO2. AB fluorescence was measured using a PerkinElmer Victor II fluorescence microplate reader (PerkinElmer, Waltham, MA) with 560 nm excitation/590 nm emission filters. For library screening, the highest concentration of each compound was adjusted to a minimally toxic concentration based on this toxicity data. Compounds were additionally tested at a second concentration that was 1/5th of the top concentration. The final concentration of DMSO in each well was 0.1 %.
# [2] = alamarBlue viability of expanded OPCs, compound at 0.1 µM, relative to DMSO control
# [3] = alamarBlue viability of expanded OPCs, compound at 1 µM, relative to DMSO control
# [4] = alamarBlue viability of expanded OPCs, compound at 10 µM, relative to DMSO control
# [5] = read-out: 0.1 µM (% DMSO), alamarBlue viability of expanded OPCs, compound at 0.1 µM, sheet All Tox data
# [6] = read-out: 1 µM (% DMSO), alamarBlue viability of expanded OPCs, compound at 1 µM, sheet All Tox data
# [7] = read-out: 10 µM (% DMSO), alamarBlue viability of expanded OPCs, compound at 10 µM, sheet All Tox data
# [8] = read-out: 0.1 µM (% DMSO), alamarBlue viability, NCC library compound at 0.1 µM, sheet "All Tox data"
# [9] = read-out: 1 µM (% DMSO), alamarBlue viability, NCC library compound at 1 µM, sheet "All Tox data"
# [10] = read-out: 10 µM (% DMSO), alamarBlue viability, NCC library compound at 10 µM, sheet "All Tox data"
smiles,measurement,setting,value
Cc1c(C(=O)NN2CCCCC2)nn(-c2ccc(Cl)cc2Cl)c1-c1ccc(I)cc1 [AM 251],0.4 uM (% Quet),[1],-5.0 % Quet
same,2 uM (% Quet),[1],-199.0 % Quet
COc1cccc2c1C(=O)c1c(O)c3c(c(O)c1C2=O)C[C@@](O)(C(=O)CO)C[C@@H]3O[C@H]1C[C@H](N)[C@H](O)[C@H](C)O1 [Adriamycin],0.1 µM (% DMSO),expanded OPCs; [2],9.9 % DMSO
same,0.1 µM (% DMSO),"expanded OPCs; alamarBlue viability of expanded OPCs, compound at 0.1 µM, sheet All Tox data",84.2 % DMSO
same,1 µM (% DMSO),expanded OPCs; [3],9.6 % DMSO
same,1 µM (% DMSO),"expanded OPCs; alamarBlue viability of expanded OPCs, compound at 1 µM, sheet All Tox data",11.2 % DMSO
same,10 µM (% DMSO),expanded OPCs; [4],7.8 % DMSO
same,10 µM (% DMSO),"expanded OPCs; alamarBlue viability of expanded OPCs, compound at 10 µM, sheet All Tox data",11.9 % DMSO
Nc1ncnc2c1ncn2[C@@H]1O[C@H](CO)C[C@H]1O [Cordycepin],viability at 0.1 µM,expanded OPCs; [5],71.9%
same,viability at 1 µM,expanded OPCs; [6],38.3%
same,viability at 10 µM,expanded OPCs; [7],16%
C[C@]12CCC(=O)C=C1CC[C@@H]1[C@@H]2C(=O)C[C@@]2(C)[C@H]1CC[C@]2(O)C(=O)CO [Cortisone],0.1 µM (% DMSO),"expanded OPCs; alamarBlue viability, NCC library compound at 0.1 µM, sheet ""All Tox data""",99.5 % DMSO
same,1 µM (% DMSO),"expanded OPCs; alamarBlue viability, NCC library compound at 1 µM, sheet ""All Tox data""",105.4 % DMSO
same,10 µM (% DMSO),"expanded OPCs; alamarBlue viability, NCC library compound at 10 µM, sheet ""All Tox data""",105.4 % DMSO
"Cc1c2oc3c(C)ccc(C(=O)N[C@@H]4C(=O)N[C@H](C(C)C)C(=O)N5CCC[C@H]5C(=O)N(C)CC(=O)N(C)[C@@H](C(C)C)C(=O)O[C@@H]4C)c3nc-2c(C(=O)N[C@@H]2C(=O)N[C@H](C(C)C)C(=O)N3CCC[C@H]3C(=O)N(C)CC(=O)N(C)[C@@H](C(C)C)C(=O)O[C@@H]2C)c(N)c1=O [Dactinomycin] (I: T[dV]P[Sar][NMeV] / II: T[dV]P[Sar][NMeV]; ester I:1-I:C, II:1-II:C; linker I:N-II:N via Actinocin(9to1))",viability at 0.1 µM,expanded OPCs; read-out: 0.1 µM (% DMSO),10.2%
same,viability at 1 µM,expanded OPCs; read-out: 1 µM (% DMSO),11.1%
same,viability at 10 µM,expanded OPCs; read-out: 10 µM (% DMSO),12.2%
COc1cccc2c1C(=O)c1c(O)c3c(c(O)c1C2=O)C[C@@](O)(C(=O)CO)C[C@@H]3O[C@H]1C[C@H](N)[C@H](O)[C@H](C)O1 [Doxorubicin],viability at 0.1 µM,expanded OPCs; [5],86.2%
same,viability at 1 µM,expanded OPCs; [6],11%
same,viability at 10 µM,expanded OPCs; [7],13.4%
C[C@]12CCC(=O)C=C1CC[C@@H]1[C@@H]2[C@@H](O)C[C@@]2(C)[C@H]1CC[C@]2(O)C(=O)CO [Hydrocortisone],0.1 µM (% DMSO),expanded OPCs; [2],122.3 % DMSO and 114.4 % DMSO
same,1 µM (% DMSO),expanded OPCs; [3],115.5 % DMSO and 108.5 % DMSO
same,10 µM (% DMSO),expanded OPCs; [4],113.8 % DMSO and 107.0 % DMSO
CC(=O)[C@]1(O)Cc2c(O)c3c(c(O)c2[C@@H](O[C@H]2C[C@H](N)[C@H](O)[C@H](C)O2)C1)C(=O)c1ccccc1C3=O [Idarubicin],viability at 0.1 µM,expanded OPCs; [5],13.9%
same,viability at 1 µM,expanded OPCs; [6],10.9%
same,viability at 10 µM,expanded OPCs; [7],11.4%
Cc1ccc(NC(=O)c2ccc(CN3CCN(C)CC3)cc2)cc1Nc1nccc(-c2cccnc2)n1 [Imatinib mesylate],viability at 0.1 µM,expanded OPCs; [8],93.7%
same,viability at 1 µM,expanded OPCs; [9],70.5%
same,viability at 10 µM,expanded OPCs; [10],18%
CN(C)CCCN1c2ccccc2CCc2ccccc21 [Imipramine],viability at 0.1 µM,expanded OPCs; [8],79.4%
same,viability at 1 µM,expanded OPCs; [9],61.9%
same,viability at 10 µM,expanded OPCs; [10],30.6%
O=C1c2c(O)ccc(O)c2C(=O)c2c(NCCNCCO)ccc(NCCNCCO)c21 [Mitoxantrone],0.1 µM (% DMSO),expanded OPCs; [2],9.7 % DMSO
same,1 µM (% DMSO),expanded OPCs; [3],9.0 % DMSO
same,10 µM (% DMSO),expanded OPCs; [4],7.8 % DMSO
